This note sets out measurements from patent US12465601B2, “Uses of phosphodiesterase inhibitors” (TRANSTHERA SCIENCES (NANJING), INC., priority 2019, dated 2025).

The test system of assay [1] is HEK293T cells double transfected with human PDE9A2 and natriuretic peptide protein receptor 1 (NPR1). In words: Effect on cGMP content in transiently transfected HEK293T cells (ANF-stimulated, cGMP ELISA). It counts as cell-based. As to conditions: ANF 1 μM; compound 0.12-30 μM; FIG. 1. For orientation: In an ELISA, binding on a coated surface is turned into a signal by an enzyme label.
Experimental: Cell name: Human embryonic kidney cell HEK293T
HEK293T cells were plated in a 6-well plate at 2×10^6 cells/well and cultured for 6 h to allow for adherence of cells.
The medium of each well was changed to 1.5 mL DMEM complete medium;
Non-transfected wells: An equal volume of DMEM complete medium (700 μL DMEM complete medium) was added to non-transfected wells.
The medium was aspirated from each well. The cells were washed once with PBS, and 250 μL of 0.5 M perchloric acid was added.
The cells were collected with a cell scraper, and transferred into a 1.5 mL centrifuge tube. After homogeneously mixing by vortex, the cells were centrifuged at 6000 g for 20 min at 4° C. […]
The plate was washed thoroughly 5 times, then 200 μL of Ellman's Reagent was added to each well. The plate was sealed, shaken in the dark, and color-developed for 60 min, and then detected for absorbance value at 412 nm.
Firstly, the non-specific binding (the reading of each well minus the reading of the NSB well) was subtracted, and then B/B0 was calculated, that is, the ratio of the binding of the sample or standard to the maximum binding, and converted according to the following formula, and then the obtained logit(B/B0) and lg (compound concentration) were subjected to linear regression analysis to obtain a standard curve. logit(B/B0)=ln[B/B0/(1−B/B0)] […]

The next assay relates to rats with heart failure. Description: Heart failure models of rats induced by coronary artery ligation. The conditions noted are these: 30 mpk p.o bid, 28 days. It counts as in vivo, Sprague Dawley rats. The procedure:
Sprague Dawley rats (SD rats), male, weight of about 220 g during modeling. Before operation, the animals were anesthetized by intraperitoneal injection of sodium pentobarbital injection, and atropine was injected intraperitoneally to eliminate phlegm. After the rat was anesthetized and fixed in supine position, a ventilator was used for assisted breathing, the chest was opened between the third and fourth ribs, and the left anterior descending coronary artery was ligated with a 5-0 suture needle. After the ligation was completed, the chest cavity was closed, the skin was sutured, and the rats were put in an insulation blanket for recovery. The same operation was performed on the sham group, except for the silk ligature operation. After the operation, the rats were subjected to intramuscular injection of meloxicam for pain relief, intraperitoneal injection of gentamicin sulfate injection for eliminating infection, and intraperitoneal injection of lidocaine for preventing ventricular fibrillation. One week after the animals recovered from surgery, the model rats were divided into a model group and a therapeutic drug group (compound 102 group), and the vehicle and compound 102 were administered by gavage, respectively, twice a day for four consecutive weeks. During the experiment, the living status of the animals were observed and abnormal conditions were recorded to evaluate the safety of the compound; and administration was performed for 28 days. The animals were anesthetized by intraperitoneal injection of sodium pentobarbital on the second day after the last administration, and echocardiographic detection and hemodynamic detection were performed to evaluate the effect of the compound on cardiac systolic function and ventricular volume. After the end of the experiment, end point treatment was performed, and the heart was taken for material collection for subsequent related researches on cGMP and protein expression. One week after the animals recovered from surgery, the rats were anesthetized with isoflurane, and a small animal ultrasound imaging system Vevo was used to examine the left ventricular function of the model rats. The model was considered successful if the LVEF % was reduced by 30%. Except for the sham group, the animals were randomly divided into 2 groups according to LVEF % and body weight. The number of animals in each group and the method of administration were as follows: [table] At the end of the experiment, rats were sacrificed and the infarct heart tissue was fixed with 4% formaldehyde, dehydrated, embedded in paraffin, and sectioned. Collagen deposition status was observed under a microscope by means of using Sirius red staining, and the Leica aperio digital slice scanning system was used for scanning analysis. The main evaluation indexes are LVEF % (left ventricular ejection fraction), FS (left ventricular fractional shortening), ESV (left ventricular end-systolic volume), EDV (left ventricular end-diastolic volume), and heart rate (HR). At the end of the experiment, the proportion of Sirius red in peri-infarction zone was quantified to evaluate the collagen deposition status. The data was represented by Mean±S.E.M, and Graphpad Prism 5.0 was used for statistical mapping. Statistical analysis was performed with T-test.

As to `CCc1cc2c(N3CCC(C)(OC)CC3)c(C#N)c(=O)[nH]c2cn1` [Compound 102, 6-ethyl-4-(4-methoxy-4-methylpiperidin-1-yl)-2-oxo-1,2-dihydro-1,7-diazanaphthalene-3-carbonitrile], the “cGMP content in HEK293T cells” value in assay [1] is “Up-regulation effect”. For the same compound, in the assay on rats with heart failure (Mean ± S.E.M, Sirius red staining, P<0.001 vs model group), the “Percentage (%) of collagen deposition in the peri-infarction zone” value came out at 21.5 ± 1.234 %. In addition, the “collagen deposition in the peri-infarction zone (in words)” value in the assay with rats with heart failure (compared with model group P<0.001) is listed as “significantly reduce”. Moreover, in the assay on rats with heart failure (vs model group P<0.001, FIG. 3), the “LVEF (left ventricular ejection fraction)” value is given as “improve the reduction”. Also, the “FS (left ventricular fractional shortening)” value in the assay on rats with heart failure (vs model group P<0.001, FIG. 4) was “improve the reduction”. In addition, the “ESV (left ventricular end-systolic volume)” value with rats with heart failure (vs model group P<0.01, FIG. 5) is listed as “significant improvement effect”. In the assay with rats with heart failure (vs model group P<0.05, FIG. 6), the “EDV (left ventricular end-diastolic volume)” value is reported as “significant improvement effect”.
